Data taken from patent publication US8192962B2, “Processes for detecting toxic substances” (Daikin Industries, Ltd., priority 2001, dated 2012).

System: Mitochondria-located protein genes
Assay: DNA chip mRNA expression in yeast, mitochondria-located protein genes (Table 2)
Assay type: cell-based, Saccharomyces cerevisiae S288C
Details: cells incubated two hours with the chemical substance
How it was run: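 Value is the scanned fluorescence intensity ratio of exposed versus chemical-free cells. Log-phase S288C yeast in YPD at 25° C. received one toxic substance for two hours, dosed to slow growth without killing; Cy3/Cy5-labeled cDNA from oligo-dT-purified mRNA was hybridized to a whole-genome chip at 65° C.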

Measured: The level of expressed mRNA in the presence of chemical substance/The level of expressed mRNA in the absence of chemical substance

COc1cc(CNC(=O)CCCCC=CC(C)C)ccc1O [(12), 8-methyl-N-vanillyl-6-nonenamide]
0.8: yeast gene YBR003W | yeast gene YBR044C | yeast gene YBR091C | yeast gene YBR282W | yeast gene YDR347W | yeast gene YEL024W | yeast gene YGL187C | yeast gene YGR082W | yeast gene YJL102W | yeast gene YJL133W | yeast gene YJL180C
0.6: yeast gene YDR529C | yeast gene YEL039C
1.8: yeast gene YDR258C
1.3: yeast gene YBR221C | yeast gene YDR178W | yeast gene YER178W
0.7: yeast gene YBL038W | yeast gene YBR122C | yeast gene YBR185C | yeast gene YHR008C | yeast gene YJL166W
1.4: yeast gene YAL039C | yeast gene YIL155C
2.0: yeast gene YGR008C
1.1: yeast gene YBR251W | yeast gene YCR046C | yeast gene YCR083W | yeast gene YDR079W | yeast gene YDR231C | yeast gene YDR298C
1.0: yeast gene YBL099W | yeast gene YCL057W | yeast gene YDL067C | yeast gene YFL016C | yeast gene YGL018C | yeast gene YGR062C | yeast gene YGR076C | yeast gene YJL096W | yeast gene YJR045C | yeast gene YJR077C
1.5: yeast gene YGR028W
1.9: yeast gene YGR244C
0.9: yeast gene YBL022C | yeast gene YBL030C | yeast gene YDL181W | yeast gene YDR377W | yeast gene YGL191W | yeast gene YGR174C
1.2: yeast gene YDL198C
